These are literature values, as cited in US20260048031A1, “POLYMORPHS OF CO-CRYSTALS OF ITANAPRACED AND NICOTINAMIDE” (CereSpir Incorporated, priority 2024, published 2026).

“Also recorded” adds a separate entry of the source.

Data set [1] deals with Juvenile Batten disease. The following applies: unpublished.
Data set [2] relates to rat traumatic brain injury model.
In data set [3] the test system is transgenic Alzheimer's mouse models. The following applies: Imbimbo, 2007, 2009; Lanzillotta 2011.
The conditions of data set [4]: in vivo.
Data set [5] relates to patients with mild cognitive impairment (MCI). The following applies: listed as itanapraced.
Data set [6] relates to mouse models of Parkinson's Disease. The settings on record: manuscript submitted.

`O=C(O)C1(c2ccc(-c3ccc(Cl)c(Cl)c3)c(F)c2)CC1` [CSP-1103, 1-(3′,4′-dichloro-2-fluoro[1,1′-biphenyl]-4-yl)-cyclopropanecarboxylic acid]: the “effects in mouse models of Juvenile Batten disease” value in data set [1] is “numerous beneficial effects”. Further, the “effects in rat traumatic brain injury model” value in data set [2] (Lin et al., 2017) is on record as “numerous beneficial effects”. Also, in data set [2] (rats after TBI (Li 2017)), the “accumulation of hypertrophic microglia in the injured brain” value is listed as “prevented”, the acute lung injury entry was “attenuated” and the neurological injury entry was “attenuated”. The “effects in transgenic Alzheimer's mouse models” value in data set [3] is “numerous beneficial effects”. In data set [4], the “penetration into the brain” value is given as “substantial” and the plasma half-life entry was “long”. In addition, the oral bioavailability entry in data set [4] (po) is “good”. For the same compound, in data set [5] (CSF / brain, MCI patients), the “TNF-α (neuroinflammatory mediator)” value is reported as “beneficial dose-related CSF differences; also recorded: dose-related statistically significant reductions”, the “soluble CD40 ligand (neuroinflammatory mediator)” value is reported as “beneficial dose-related CSF differences; also recorded: dose-related statistically significant reductions” and the “total tau (marker of neurodegeneration)” value is given as “beneficial dose-related CSF differences; also recorded: dose-related statistically significant reductions”. Besides, the “cognitive function throughout the duration of the trial” value in data set [5] (MCI patients) is listed as “stable cognition; also recorded: stable cognitive function”. For the same compound, the safety and tolerability entry in data set [5] (Phase 1 studies and Phase 2 in MCI, treated up to two years) was “good safety and tolerability; also recorded: well tolerated”. The “effects in mouse models of Parkinson's Disease” value in data set [6] is “numerous beneficial effects”.
